Entries after “also recorded” stand apart in the source; their conditions may differ. Read-outs that look alike come from different tables or passages of the source.
Columns and labels:
zebrafish = assay: Zebrafish behaviour during acute anoxia; format: in vivo; details: whole zebrafish in anoxic water post-treatment; expected
Description: Vertebrate (zebrafish) behaviour is examined during acute anoxia. Whole zebrafish are exposed to anoxic water post-treatment with a PDE5 inhibitor, 8-bromo-GMP, KT5823, and Cantharidin. The time until the animal knocks out during anoxia is monitored.

[1] = tested on: adult Drosophila melanogaster; format: in vivo; details: sitter adults, volatilized from DMSO 1 hr, 1 mM KT5823, 1 mM Cantharidin, 200 mM DCA, 10 mM 8-Bromo cGMP, 10 mM T-0156, versus DMSO sham
Experimental: FIG. 9 is a diagram illustrating in vivo treatment of adult Drosophila melanogaster with pharmacological agents. […] Adult sitters were exposed to various drugs known to target components of the PKG pathway (FIG. 8A). These drugs included: 10 mM T0156, a cGMP-specific phosphodiesterase-5 inhibitor, 10 mM 8-Bromo-cGMP, a PKG activator, 1 mM KT5823, a PKG inhibitor, 1 mM Cantharidin, a PP2A inhibitor, and 200 mM DCA, a K^+ channel activator. All drugs were solubilized in dimethyl sulfoxide (DMSO), where flies treated with only DMSO were used as sham controls. […] 10 μL of drug solution was applied to a crushed Kim wipe at the bottom of each 10 mL test vial. An additional Kim wipe was crushed over top of this to prevent direct contact between the fly and solution. 10 flies were then placed in the vial which was capped with a semi-permeable buzz-stopper, covered with a cut-out finger of a large latex glove to prevent chemical vapours from escaping, and incubated in the dark. The flies were subjected to the drug for 1 hr prior to each behavioural assay. In the drug combination experiments, 20 uL of DMSO was used as a control sham, and combinations of two pharmacological treatments were added as two separate 10 uL aliquots.
Whether or not fly PKG levels could be manipulated in vivo using a technique that uses volatilization of pharmacological agents was next examined. The role of these targets in vivo using sitter flies was examined by depositing pharmacological agents dissolved in DMSO on a cellulose tissue, and allowing them to volatize over minutes in an air tight vial at room temperature (FIG. 9). Adults were exposed to the volatilized compound for one hour in the dark and then assayed for locomotory resilience to acute hypoxia. Control sham animals (FIG. 7A) were treated with only DMSO. Compounds were chosen to target different components of the cGMP pathway (FIG. 8A) in tracheal smooth muscle and Chinese hamster ovary cells, where cGMP activates PKG, thereby activating PP2A, which then de-phosphorylates K^+ channels. The hypothesis that inhibition of this pathway would result in an increase in whole cell K^+ channel conductance, thereby leading to increased resilience to anoxic coma onset, was tested.
Locomotory Tolerance Assay during Acute Hypoxia: Ten flies (separated into males or females) from each of the three strains (rover [for^R], sitter [for^S] and for^s2) were selected and placed in three separate vials with food at least 24 hours before each experiment. At the time of the experiment, flies were emptied into 10 mL empty test vials covered with permeable sponge caps of equivalent thickness, allowing for consistent gas exchange. These test vials were then placed into a 600 mL beaker which was covered with parafilm, creating a closed chamber with an escape hole (1 cm diameter). The parafilm top was punctured with a needle connected to a gas tank (by a plastic hose), through which the inert gas argon was expelled. […] The needle tip was fastened to the bottom of the beaker and inserted into a larger sponge of similar texture to the vial sponge caps to ensure that gas expelled from the needle was dispersed equally throughout the beaker. Also, to ensure that all test vial positions in the beaker received equal gas flow, test vial positions were alternated every trial to reduce variability.
The experiment required exposing the test vials with 10 flies in the container to pure argon gas expelled from the tank at a flow rate of 600 cc/min+/−5%. Time of behavioural failure was recorded by observing the fly undergo a seizure, which was quickly followed by an anoxic coma.

Row | Compound | time until the animal knocks out during anoxia (zebrafish) | time to anoxic coma onset during acute hypoxia, single agents ([1]; listed as 8-Bromo cGMP) | time to anoxic coma onset during acute hypoxia, single agents ([1]; listed as 8-bromo cGMP) | time to anoxic coma onset during acute hypoxia, single agents [1]
1 | Nc1nc2c(nc(Br)n2[C@@H]2O[C@@H]3COP(=O)(O)O[C@H]3[C@H]2O)c(=O)[nH]1 [8-Br-cGMP] | increased sensitivity to anoxia causing early failure of behaviour (neural function) | exhibited significant sensitivity to anoxic coma | enhanced sensitivity to acute hypoxia; also recorded: expedited locomotory failure during acute hypoxia of sitters to rover levels | 
2 | COC(=O)[C@@]1(OC)C[C@H]2O[C@]1(C)n1c3ccccc3c3c4c(c5c6ccccc6n2c5c31)C(=O)N(C)C4 [KT5823, (9S, 10R, 12R)-2,3,9,10,11,12-Hexahydro-10-methoxy-2-9-dimethyl-1-oxo-9,12-epoxy-1H-diindolo-[1,2,3-fg:3′,2′,1′-k1]pyrrolo[3,4-i][1,6]benzodiazocine-10-carboxylic acid methyl ester] | neuroprotection and prolonged behaviour when subject to anoxia |  |  | significant increase in tolerance to acute hypoxia; also recorded: demonstrated significant resilience to anoxic coma
